This experiment deals with Mu-type opioid receptor (Homo sapiens, UniProt P35372). The experiment in a line: Mu Opioid Receptor Binding Assay and Antagonist Functionality Assay. The following applies: pH 7.4; 22 °C. The method, then:
In the binding assays, the results were expressed as percent inhibition of the control radioligand specific binding. The IC50 values (concentration causing a half maximal inhibition of control specific binding) were determined by non-linear regression analysis of the competition curves using Hill equation curve fitting. The inhibition constants (Ki) were calculated from the Cheng Prusoff equation. EC50/IC50 measures the antagonist activities on mu-agonist triggered luminescence in AequoScreen cells.

This is an account of results in BindingDB's records for doi:10.1021/jm801211c (Intervet Innovation, 2009).

Mu-type opioid receptor, sequence (P35372 whole entry): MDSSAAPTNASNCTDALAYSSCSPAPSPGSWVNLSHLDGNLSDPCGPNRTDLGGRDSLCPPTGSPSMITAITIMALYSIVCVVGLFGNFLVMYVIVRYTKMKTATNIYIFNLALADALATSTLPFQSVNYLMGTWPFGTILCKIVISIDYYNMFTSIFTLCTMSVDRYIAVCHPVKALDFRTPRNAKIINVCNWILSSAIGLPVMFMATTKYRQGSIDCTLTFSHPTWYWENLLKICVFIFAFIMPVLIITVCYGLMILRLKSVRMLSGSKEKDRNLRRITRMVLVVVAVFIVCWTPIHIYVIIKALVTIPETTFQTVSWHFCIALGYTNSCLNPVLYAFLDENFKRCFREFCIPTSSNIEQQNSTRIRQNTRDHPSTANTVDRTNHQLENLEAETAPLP

For `CC(C)N[C@@H]1CCn2c(=O)[nH]c3cccc(c32)[C@H]1O` [(9R,10R)-9-hydroxy-10-(propan-2-ylamino)-1,3-diazatricyclo[6.4.1.0^{4,13}]trideca-4(13),5,7-trien-2-one], the EC50 is over 1000 µM. As for `CC(C)N[C@H]1CCn2c(=O)[nH]c3cccc(c32)[C@@H]1O` [(9S,10S)-9-hydroxy-10-(propan-2-ylamino)-1,3-diazatricyclo[6.4.1.0^{4,13}]trideca-4(13),5,7-trien-2-one], the half-maximal effective concentration (EC50) turned out to be 140 µM.
